{"source": "patent US11938125B2", "about": "“Use of Hsp70 as a regulator of enzymatic activity” (Zevra Denmark A/S, priority 2008, dated 2024)", "key": {"[1]": {"tested_on": "lysosomes of U-2-OS cells", "assay": "Lysosomal integrity upon photo-oxidation (acridine orange and blue light)", "assay_type": "cell-based, human", "conditions": "for protection of lysosomes against photo-oxidation (lysosomal integrity): U-2-OS cells, recombinant protein 300 nM, 24 h", "method": "Sub-confluent U-2-OS cells incubated with 2 μg/ml acridine orange for 15 min at 37° C. were washed, irradiated and analyzed in Hanks balanced salt solution complemented with 3% FCS. Cells for single cell imaging were selected from 8 pre-defined areas of each well in transmitted light-mode after which the same cells were immediately visualized and exposed to blue light from USH102 100 W mercury arc burner (Ushio electric) installed in a U-ULS100HG housing (Olympus) for 20 sec. Fluorescence microscopy was performed on Olympus IX-70 inverted microscope with a LCPlanF1×20 objective with NA=0.40. Loss of lysosomal pH gradient was quantified by counting the loss of intense red staining.\n(§1) Assays for lysosomal integrity. Sub-confluent cells incubated with 2 μg/ml acridine orange for 15 min at 37° C. were washed, irradiated and analyzed in Hanks balanced salt solution complemented with 3% fetal calf serum. Cells for single cell imaging were selected from 8 pre-defined areas of each well in transmitted light-mode after which the same cells were immediately visualized and exposed to blue light from USH102 100 W mercury arc burner (Ushio electric) installed in a U-ULS100HG housing (Olympus) for 20 sec. Fluorescence microscopy was performed on Olympus IX-70 inverted microscope with a LCPlanF1×20 objective with NA=0.40. Loss of lysosomal pH gradient was quantified by counting the loss of intense red staining. A more elaborate method for assaying lysosomal integrity was developed to handle the larger lysosomal compartment of the various fibroblasts used in this study. Cells for single cell imaging were selected from 8 pre-defined areas of each well in transmitted light-mode after which the same cells were immediately and continuously exposed to 489 nm light from a 100 mW diode laser while laser scanning micrographs where captured every 330 ms on a Zeiss LSM LIVE DUO confocal system in two channels defined by bandpass filters for 495-555 nm (green) and LP650 nm (Red) light. The resulting timelapse movies where subsequently analysed by the integrated Zeiss LSM DUO software. The total and cytoplasmic (digitonin-extracted) cathepsin activities were measured in digitonin-treated samples using zFR-AFC (Enzyme System Products) probe as described in the art."}, "HSPs, including Hsp70": {"tested_on": "HSPs, including Hsp70", "conditions": "cited from earlier work"}, "Hsp70": {"tested_on": "Hsp70", "assay": "Hsp70 protein expression by western blotting in NPDA cells", "assay_type": "cell-based, human", "conditions": "NPDA Götz cells, 0, 20, 30, 35, 40, 45 mM", "method": "It is shown in Examples 2 and 3 that Hsp70 has a lysosome stabilizing effect via an interaction with BMP. In order to evaluate if this effect is also observed when exposing cells to a chemical Hsp70 inducer, Niemann-Pick Type A (NPDA) patient fibroblasts were treated with the small molecule Hsp70 inducer; Benzyl Alcohol (BA). First, NPDA cells were treated with increasing doses of BA (0, 20, 30, 35, 40, 45 mM), lysed, and analysed by western blotting. The same amount of protein was loaded in each well. […] Next, the stability of NPDA Götz lysosomes after treatment with 40 mM BA was evaluated, using the same methods as described in Example 2. […] Finally, the lysosomal cross-sectional area in NPDA Götz cells after treatment with 40 mM BA was evaluated, using the same methods as described in Example 2."}, "[2]": {"tested_on": "lysosomes of NPDA patient fibroblasts", "assay": "Lysosomal stability of NPDA fibroblasts (photo-oxidation, live single-cell imaging)", "assay_type": "cell-based, human", "conditions": "NPDA Götz cells, 40 mM", "method": "as §1"}, "NPDA fibroblasts": {"tested_on": "NPDA fibroblasts", "assay": "Lysosomal area of confocal cross sections, NPDA fibroblasts", "assay_type": "cell-based, human", "conditions": "for pathology measured by lysosomal cross-sectional area: NPDA Götz cells, 40 mM", "text": "Immunodetection and microscopy. Primary antibodies used included mouse monoclonal antibodies against Hsp70 (2H9; kindly provided by Boris Margulis, Russian Academy of Sciences, St. Petersburg, Russia), glyceraldehyde-3-phosphate dehydrogenase (GAPDH; Biogenesis), BMP (6C4), lysosomal integral membrane protein-1 (H5C6; developed by J. Thomas August and James E. K. Hildreth and obtained from the Developmental Studies Hybridoma Bank developed under the auspices of the NICHD and maintained by The University of Iowa, Department of Biological Sciences, Iowa City, USA). Proteins separated by 10% SDS-PAGE and transferred to a nitrocellulose membrane were detected by using indicated primary antibodies, appropriate peroxidase-conjugated secondary antibodies from Dako, ECL Western blotting reagents (Amersham), and Luminescent Image Reader (LAS-1000Plus, Fujifilm). For immunocytochemistry Alexa […] or Alexa Fluor®-488-conjugated secondary antibodies were used. Lysotracker Red® was used for live visualization of the lysosomal compartment. Fluorescence images were taken using a Zeiss Axiovert 100M laser scanning microscope. Lysotracker quantification and timelapse movies for lysosomal integrity were done on a Zeiss LSM LIVE DUO system."}, "[3]": {"tested_on": "U-2-OS osteosarcoma cells", "assay": "Cisplatin-induced apoptosis-like cell death (Hoechst 33342)", "assay_type": "cell-based, human", "conditions": "for protection of cells against cisplatin-induced lysosomal cell death: recombinant protein 300 nM 24 h, 25 μM cisplatin 24 h", "method": "(§2) Apoptosis-like cell death was assessed by staining the cells with 0.05 μg/ml Hoechst 33342 (Molecular Probes) and counting cells with condensed nuclei in an inverted Olympus IX-70 fluorescent Microscope (Filter U-MWU 330-385 nm). For each experiment a minimum of eight randomly chosen areas were counted.\nas §2, with “Assays for cell viability. Cell density was assessed by the 3-(4,5-dimethylthiazole-2-y)-2,5-[…] (MTT, SIGMA-Aldrich) reduction assay essentially as described in the art. Apoptosis-like” for “Apoptosis-like”"}, "[4]": {"assay": "Folding and chaperone function of rHsp70 mutant (circular dichroism, luciferase folding, ATP hydrolysis)", "assay_type": "biochemical"}, "BMP": {"tested_on": "BMP", "assay": "BIAcore surface plasmon resonance with immobilized BMP-containing LUVs", "assay_type": "binding", "conditions": "pH 4.5, L1 sensor chip", "method": "(§3) For preparation of LUVs a lipid mixture consisting of 10 mol % sphingomyelin, 50 mol % phosphatidylcholine, 20 mol % cholesterol and 20 mol % BMP dissolved in organic solvents, was dried under a stream of argon and rehydrated in Tris/HCl buffer (pH 7.4) (Kolzer et al., 2004). The mixture was freeze-thawed nine times in liquid nitrogen and then in an incubator at 37° C. After ultrasound bath for 15 min the mixture was passed 21 times through a polycarbonate membrane with a pore diameter of 100 nm. Surface plasmon resonance measurements were performed using a BIAcore 2000 system at 25° C. LUVs (total lipid concentration 0.1 mM) were immobilized on the surface of a L1 sensor chip (BIAcore) in PBS (loading buffer). The running buffer used was sodium acetate buffer (50 mM, pH 4.5). As a control, acid sphingomyelinase (0.2 μM, 60 μl in running buffer) was injected directly on the liposome surface. Response units between 4100 RU-5250RU were obtained. The protein of interest was injected in running buffer at a flow rate of 20 μl/min at the concentrations indicated. After injection a dissociation phase of 10 min was appended.\nas §3, with “Surface Plasmon Resonance (BIAcore). For” for “For”, “7.4).” for “7.4) (Kolzer et al., 2004).”, “The protein of interest was injected in running buffer at a flow rate of 20 μl/min at the concentrations indicated. After injection a dissociation phase of 10 min was appended.” left out"}, "POPC/BMP liposomes": {"tested_on": "POPC/BMP liposomes", "assay": "Tryptophan fluorescence shift upon docking into POPC/BMP liposomes", "assay_type": "binding", "conditions": "pH 6.0", "method": "(§4) The tryptophan fluorescence spectra (RFI) and liposome 900 light scattering (RSI) were analyzed in a HEPES buffer (20 mM HEPES, 0.1 mM EDTA, pH 7.4 or 6.0 as indicated) employing LUVs consisting of indicated lipids essentially as described previously. For the RFI, LUVs were added in 10 μM aliquots and spectra recorded after a 20 min stabilization period. For the RSI, recombinant proteins were added in 0.12 nmol aliquots.\nas §4, with “Tryptophan fluorescence spectra and liposome 90° light scattering. The” for “The”, “in the art.” for “previously.”"}}, "note": "Entries after “also recorded” stand apart in the source; their conditions may differ."}
{"molecule": "5′-GCCAUGACGAAAGACAACAAUCUGU-3′ (other strand not given here) [Hsp70 siRNA, siRNA targeting the two genes encoding Hsp70, reference compound]", "values": [{"measurement": "sensitization of lysosomes to photo-oxidation by siRNA", "setting": "[1]; U-2-OS cells, siRNA 48 h; listed as siRNA) specific for Hsp70", "value": "sensitized lysosomes of U-2-OS cells to photo-oxidation; also recorded: sensitized the lysosomes to photo-oxidation"}]}
{"molecule": "[O-][n+]1cccc(/C(Cl)=N/OC[C@H](O)CN2CCCCC2)c1", "note": "[Arimoclomol]", "values": [{"measurement": "induction or co-induction of HSPs / heat shock response", "setting": "HSPs, including Hsp70", "value": "interacts with and amplifies the heat shock response"}]}
{"molecule": "[O-][n+]1cccc(C(Cl)=NOC[C@H](O)CN2CCCCC2)c1", "note": "[BRX-345]", "values": [{"measurement": "induction or co-induction of HSPs / heat shock response", "setting": "HSPs, including Hsp70", "value": "somewhat lesser ability to induce HSPs"}]}
{"molecule": "OCc1ccccc1", "note": "[Benzyl Alcohol]", "values": [{"measurement": "Hsp70 protein expression", "setting": "Hsp70", "value": "Induction of Hsp70 in NPDA Götz by Benzyl alcohol in a dose-dependent manner"}, {"measurement": "Hsp70 protein expression", "setting": "Hsp70; listed as BA", "value": "induced Hsp70 expression in a dose-dependent manner"}, {"measurement": "stability of lysosomes", "setting": "[2]", "value": "Increased stability of NPDA Götz lysosomes"}, {"measurement": "stability of lysosomes", "setting": "[2]; listed as BA", "value": "increased lysosomal stability"}, {"measurement": "pathology measured by lysosomal cross-sectional area", "setting": "NPDA fibroblasts", "value": "Decreased pathology"}, {"measurement": "pathology measured by lysosomal cross-sectional area", "setting": "NPDA fibroblasts; listed as BA", "value": "decreased pathology"}]}
{"molecule": "O=C(O)/C=C\\C(=O)O.OC(CON=C(Cl)c1cccnc1)CN1CCCCC1", "note": "(centres unmarked) [Bimoclomol, [2-hydroxy-3-(1-piperidinyl)propoxy]-3-pyridine-carboximidoyl-chloride maleate]", "values": [{"measurement": "induction or co-induction of HSPs / heat shock response", "setting": "HSPs, including Hsp70", "value": "capability of Hsp70 co-induction in the absence of unfolded proteins"}]}
{"molecule": "N.N.[Cl][Pt][Cl]", "note": "[cisplatin, reference compound]", "values": [{"measurement": "lysosomal membrane permeabilization", "setting": "[3]; U-2-OS cells", "value": "induces an early lysosomal membrane permeabilization"}]}
{"molecule": "Hsc70: recombinant Hsc70, 86% amino acid sequence homology with Hsp70", "values": [{"measurement": "protection of lysosomes against photo-oxidation (lysosomal integrity)", "setting": "[1]", "value": "no protection; also recorded: no lysosomal stabilization"}]}
{"molecule": "Hsp70-2: recombinant Hsp70-2, 84% amino acid sequence homology with Hsp70", "values": [{"measurement": "protection of lysosomes against photo-oxidation (lysosomal integrity)", "setting": "[1]", "value": "no protection; also recorded: no lysosomal stabilization"}]}
{"molecule": "rHsp70-W90F: rHsp70 point mutant, tryptophan 90 substituted with phenylalanine", "values": [{"measurement": "protection of cells against cisplatin-induced lysosomal cell death", "setting": "[3]", "value": "completely lost its ability"}, {"measurement": "luciferase folding and ATP hydrolysis", "setting": "[4]", "value": "capable of folding luciferase and hydrolyzing ATP"}, {"measurement": "interaction with BMP-containing LUVs (BIAcore)", "setting": "BMP", "value": "dramatically decreased; also recorded: specifically abolished the interaction between rHsp70 and BMP"}, {"measurement": "relative peak fluorescence intensity (tryptophan fluorescence shift)", "setting": "POPC/BMP liposomes", "value": "reduction of the signal"}, {"measurement": "protection of lysosomes against photo-oxidation (lysosomal integrity)", "setting": "[1]", "value": "completely lost its ability to protect the lysosomal membranes against photo-oxidation"}, {"measurement": "lysosomal area / volume of the lysosomal compartment", "setting": "NPDA fibroblasts; NPDA fibroblasts, 24 h, 300 nM rHsp70 or W90F, 150 nM rASM or combination", "value": "effect comparable to control cells"}]}
{"molecule": "rHsp70-W580F: rHsp70 point mutant, tryptophan 580 substituted with phenylalanine", "values": [{"measurement": "protection of cells against cisplatin-induced lysosomal cell death", "setting": "[3]", "value": "same efficacy as the wild-type protein; also recorded: same protective effect as the wild-type protein"}, {"measurement": "interaction with BMP-containing LUVs (BIAcore)", "setting": "BMP", "value": "essentially the same interaction profile as rHsp70"}, {"measurement": "relative peak fluorescence intensity (tryptophan fluorescence shift)", "setting": "POPC/BMP liposomes", "value": "unchanged signal"}, {"measurement": "protection of lysosomes against photo-oxidation (lysosomal integrity)", "setting": "[1]", "value": "same efficacy as the wild-type protein; also recorded: same protective effect as the wild-type protein"}]}
